Patent publication US10561676B2, “Method for treating cancer using dual antagonists of CXCR1 and CXCR2” (Syntrix Biosystems, Inc., priority 2018, dated 2020)

Assays:
[1] = tested on: B16-F10 syngeneic mouse model of melanoma; assay: B16-F10 syngeneic mouse model of melanoma; format: in vivo
Description: The B16-F10 mouse model is an established model of melanoma, Overwijk, 2001, CURR PROTOC IMMUNOL, Chapter 20: Units 20-21 (herein incorporated by reference), which was used to evaluate the effect of SX-682 alone and in combination with anti-PD1 antibody. B16-F10 mouse melanoma cells were cultured, then mice were injected with 0.5×10^6 B16-F10 cells on day 0, and treatment was initiated on day 18. Mice were treated with vehicle (control), SX-682 alone (50 mg/kg twice daily, oral), anti-PD-1 alone (100 μg twice weekly, i.p.), or SX-682 in combination with anti-PD-1 (N=4-5 per cohort). SX-682 was used as a spray dried dispersion (Formulation Example 1), and was administered to mice via oral gavage as a suspension in 0.5% aq. methylcellulose. […] Data and error bars are the mean±SE.

[2] = tested on: 60 human tumor cell line panel; assay: 60 human tumor cell line panel proliferation (SRB); format: cell-based; details: 0.01-100 μM, 48 h
Description: The chemokine CXCL8 and its receptors CXCR1 and CXCR2 have been identified as important mediators of cellular proliferation for a number of tumor cell types.
The human tumor cell lines of the cancer screening panel were grown in RPMI 1640 medium containing 5% fetal bovine serum and 2 mM L-glutamine. […] After cell inoculation, the microtiter plates were incubated at 37° C., 5% CO2, 95% air and 100% relative humidity for 24 h prior to addition of SX-682.
After 24 h, two plates of each cell line are fixed in situ with TCA, to represent a measurement of the cell population for each cell line at the time of drug addition (Tz). […]
Following drug addition, the plates were incubated for an additional 48 h at 37° C., 5% CO2, 95% air, and 100% relative humidity. […] Bound stain was subsequently solubilized with 10 mM TRIS, and the absorbance was read on an automated plate reader at a wavelength of 515 nm. […] Using the seven absorbance measurements (time zero, (Tz), control growth, (C), and test growth in the presence of drug at the five concentration levels (Ti)), the percentage growth was calculated at each of the drug concentrations levels. Percentage growth inhibition was calculated as: (Ti−Tz)/(C−Tz)×100 for concentrations for which Ti>/=Tz (Ti−Tz)/Tz×100 for concentrations for which Ti<Tz.
Three dose response parameters were calculated for each experimental agent. […]

[3] = biological target: T1, CXCR1 (Homo sapiens, UniProt P25024); assay: Wash-resistant inhibition of CXCL8-mediated calcium flux, CXCR1-transfected RBL cells; format: cell-based; details: 30 min incubation at 0.4, 2, 10 μM, then washout
T1 construct: expressed in transfected cells
T1 sequence (P25024 1-350): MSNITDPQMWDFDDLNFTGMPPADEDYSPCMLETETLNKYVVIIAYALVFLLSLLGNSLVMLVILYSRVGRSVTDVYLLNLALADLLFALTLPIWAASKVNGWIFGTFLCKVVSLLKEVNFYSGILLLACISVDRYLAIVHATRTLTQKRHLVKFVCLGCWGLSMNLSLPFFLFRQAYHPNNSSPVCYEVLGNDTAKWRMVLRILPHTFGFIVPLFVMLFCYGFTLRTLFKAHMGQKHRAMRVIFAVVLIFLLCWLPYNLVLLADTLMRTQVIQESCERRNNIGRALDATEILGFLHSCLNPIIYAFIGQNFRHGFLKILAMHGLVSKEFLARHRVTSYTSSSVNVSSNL
Description: In order to test this hypothesis, RBL cells (10^7 cells/ml) stably transfected with either CXCR1 or CXCR2 were (1) incubated with SX-682 at various concentrations for 30 minutes at 37° C., (2) washed and resuspended in assay buffer (RPMI/2% serum) at room temperature, and (3) assayed for CXCL8-mediated calcium response at time points up to 12 h after inhibitor washout. The concentrations of SX-682 tested were 0 (positive control), 0 (negative control), 0.4, 2, and 10 μM. At 30 minutes before each time point, a 56.25 μl aliquot of the cells were removed and loaded for 30 minutes at room temperature in the dark with FLIPR™ 3 reagent (262.5 μl per tube). Following FLIPR™ 3 incubation, cells were assayed for CXCL8 mediated intracellular calcium release as described in Pharmacology Example 1.

[4] = tested on: LLC syngeneic mouse model of lung cancer; assay: LLC syngeneic mouse model of lung cancer; format: in vivo
Description: The Lewis lung carcinoma (LLC) mouse model (Kellar, 2015, Biomed Res Int, 2015:621324, herein incorporated by reference) was used to evaluate the effect of SX-682 alone and in combination with anti-PD-1 antibody. LLC mouse […] cells were cultured, then mice were injected with 0.5×10^6 LLC cells on day 0, and on day 18 treatment was initiated. Mice were treated with vehicle (control), SX-682 alone (50 mg/kg twice daily, oral), anti-PD-1 alone (100 μg twice weekly, i.p.), or SX-682 in combination with anti-PD-1 (N=5 per cohort). SX-682 was used as a spray dried dispersion (Formulation Example 1), and was administered to mice via oral gavage as a suspension in 0.5% aq. methylcellulose.

[5] = SX-682 50 mg/kg twice daily oral + anti-PD-1 100 μg twice weekly i.p.

O=C(Nc1ccc(F)cc1)c1cnc(SCc2cc(OC(F)(F)F)ccc2B(O)O)nc1 [SX-682, 2-(2-boronic acid-5-trifluoromethoxy-benzylsulfanyl)-pyrimidine-5-carboxylic acid (4-fluoro-phenyl)-amide]
tumor growth, SX-682 monotherapy ([1]; 50 mg/kg twice daily, oral): significantly slowed tumor growth | tumor growth, SX-682 in combination with anti-PD-1 [1, 5]: significantly better than either therapy alone | tumor cell proliferation [2]: directly affect the proliferation of human tumor cells | time inhibition of calcium flux is sustained after washout [3]: at least 12 hours | tumor growth, SX-682 monotherapy ([4]; 50 mg/kg twice daily, oral): significantly slowed tumor growth | tumor growth, SX-682 in combination with anti-PD-1 [4, 5]: significantly better than either therapy alone | survival, SX-682 in combination with anti-PD-1 ([4]; vs vehicle or anti-PD-1 alone, up to 66 days): significantly enhanced survival
